Data reported in patent EP0503079A1, “PYRIDAZINONE-SUBSTITUTED ETHYNYLPHENYL DERIVATIVE AND REMEDY FOR CIRCULATORY ORGAN DISEASE CONTAINING THE SAME AS ACTIVE INGREDIENT” (KAKEN PHARMACEUTICAL CO., LTD., priority 1990, dated 1992).

What was measured:
[1] = tested on: Aortae abdominalis of male Wister rats; assay: Anti-norepinephrine activity on rat abdominal aorta strip preparations (auto-Magnus apparatus); settings: tension by norepinephrine (10⁻⁷M) regarded as 100
Description: Aortae abdominalis of male Wister rats (8-12 weeks) were delivered and cut in spiral-shape to be strip preparations. Each test compounds was disolved in DMSO. Then, the solution was diluted with distilled water and prepared to be desired concentration. Using an auto-Magnus apparatus, as to the vasoconstriction after adding norepinephrine, contractive forces were measured under the existence of the test compounds.

Slc: ddy male mice [2] = assay: Acute toxicity; format: in vivo; settings: oral administration, death rate after 7 days
Description: In each group, 6 Slc: ddy male mice weighing 25 to 29 g (6 weeks) were employed. Each compound was administered orally thereto and a value of acute toxicity was evaluated with death rate after 7 days.

Slc: ddy male mice [3] = assay: Activity on stress ulcers (restraint and water immersion); format: in vivo; settings: length of ulcer in glandular stomach; 30 mg/kg orally; restrained and immersed in water of 23°C for 7 hours
Description: In each group, 5 Slc: ddy male mice (6 weeks) were employed. Each test compound was kneaded with Tween-80 followed by adding a 0.5 % solution of gum arabic to prepare 30 mg/10 mℓ solution (solution containing 1.5 % Tween-80 and 0.5 % gum arabic). Then, the preparation was administered orally in a rate of 30 mg/kg. After the administration, the mice were restrained and immersed in a water tank of 23°C for 7 hours. Then, length of the ulcer in the glandular stomach was measured by a stereoscopic microscope (x 10).

Slc-ddy male mice = assay: Activity on hypoxia induced in decapitation of mice (gasping time); format: in vivo; parameters: dose or concentration left out as unconfirmed; settings: gasping time after decapitation, one hour after oral administration
Description: In each group, 3 Slc-ddy male mice (4 weeks) were employed. Each test compound was suspended or dissolved in a 0.5 % methyl cellulose solution. After the concentration was adjusted, the dose became […], the solution was administered orally. One hour after the administration, mice were decapitated and gasping time was measured.
(§1) Inhibition rate was calculated by the following formula. [formula]

platelet aggregation = assay: Inhibitory activity on platelet aggregation (turbidimetry); format: cell-based, New Zealand White male rabbits; settings: for Inhibition rate (%) ADP aggregation: 0.6 µg/mℓ ADP; for Inhibition rate (%) PAF aggregation: 5 x 10⁻⁹M PAF; for Inhibition rate (%) Collagen aggregation: 2 µg/mℓ collagen
Description: Blood was exsanguinated from New Zealand White male rabbits weighing from 2.5 to 3.0 kg and subjected to the test. Each test compound was dissolved in ethanol and prepared to be 1 x 10⁻⁵, 1 x 10⁻⁶ or 1 x 10⁻⁷M respectively. Each aggregation response was measured by turbidimetry. Concentration of aggregating agent was 2 µg/mℓ of collagen, 0.6 µg/mℓ of adenosine 5'-diphosphate (ADP) or 5 x 10⁻⁹M of platelet aggregating factor (PAF).
as §1

| Substance | Contractive force ([1]; compound 10⁻⁷ M) | Contractive force ([1]; compound 10⁻⁸ M) | Contractive force ([1]; compound 10⁻⁹ M) | LD₅₀ (Slc: ddy male mice [2]) | Inhibition rate (%) (Slc: ddy male mice [3]) | Inhibition rate (%) (Slc-ddy male mice) | Inhibition rate (%) ADP aggregation (platelet aggregation; compound 10⁻⁵ M) | Inhibition rate (%) PAF aggregation (platelet aggregation; compound 10⁻⁵ M) | Inhibition rate (%) ADP aggregation (platelet aggregation; compound 10⁻⁶ M) | Inhibition rate (%) Collagen aggregation (platelet aggregation; compound 10⁻⁶ M) | Inhibition rate (%) ADP aggregation (platelet aggregation; compound 10⁻⁷ M) | Inhibition rate (%) Collagen aggregation (platelet aggregation; compound 10⁻⁷ M) |
| --- | --- | --- | --- | --- | --- | --- | --- | --- | --- | --- | --- | --- |
| 2,6-dimethyl-4-(3-ethynylphenyl)-3-methoxycarbonyl-5-{4-(6-oxo-1,4,5,6-tetrahydropyridazinon-3-yl)phenyl}aminocarbonyl-1,4-dihydropyridine [Compound 1] | 15.7 | 87.4 | 102.8 | 1000 mg/kg | 83.0% | 28.6% | 94% | 64% | 70% | 94% | 21% | 21% |
| 2,6-dimethyl-4-{3-(3-hydroxy-3-methyl)-1-butyn-1-yl)}phenyl-3-methoxycarbonyl-5-{4-(6-oxo-1,4,5,6-tetrahydropyridazinon-3-yl)phenyl}aminocarbonyl-1,4-dihydropyridine [Compound 7] | 16.3 | 89.2 | 100.3 | 800 mg/kg | 88.8% | 19.1% | 89% | 40% | 73% | 92% | 24% | 25% |
| 2,6-dimethyl-4-{3-(4-hydroxy-1-butyn-1-yl)}phenyl-3-methoxycarbonyl-5-{4-(6-oxo-1,4,5,6-tetrahydropyridazinon-3-yl)phenyl}aminocarbonyl-1,4-dihydropyridine [Compound 6] | 10.8 | 70.2 | 90.5 | 950 mg/kg |  | 21.5% | 93% | 69% | 68% | 93% | 22% | 22% |
